{"source": "ChEMBL document CHEMBL5050828", "about": "“Inhibitors of DUX4 induction for regulation of muscle function” (2021)", "key": {"[1]": {"assay": "Brain concentration in male CD-1 mouse at 10 mg/kg, IM administered as single dose and measured by LC-MS/MS analysis", "type": "ADME, organism-based", "conditions": "in vivo, BLD = below limit of detection"}, "Myoblast [2]": {"system": "Myoblast", "assay": "Effect on DUX4-target gene expression in facioscapulohumeral muscular dystrophy (FSHD) primary pateint derived myoblasts at 0.03 to 3 microM assessed as decrease in SPRYD5 expression", "type": "functional, cell-based", "conditions": "Homo sapiens, dose 0.03-3 µM"}, "Myoblast [3]": {"system": "Myoblast", "assay": "Effect on DUX4-target gene expression in facioscapulohumeral muscular dystrophy (FSHD) primary pateint derived myoblasts at 0.03 to 3 microM assessed as decrease in TRIM49 expression", "type": "functional, cell-based", "conditions": "Homo sapiens, dose 0.03-3 µM"}, "Myoblast [4]": {"system": "Myoblast", "assay": "Effect on DUX4-target gene expression in facioscapulohumeral muscular dystrophy (FSHD) primary pateint derived myoblasts at 0.03 to 3 microM assessed as decrease in PRAMEF6 expression", "type": "functional, cell-based", "conditions": "Homo sapiens, dose 0.03-3 µM"}, "[5]": {"assay": "Half-life in male CD-1 mouse at 10 mg/kg, IM measured by LC-MS/MS analysis", "type": "ADME, organism-based", "conditions": "in vivo"}, "Myoblast [6]": {"system": "Myoblast", "assay": "Effect on myosin heavy chain expression in facioscapulohumeral muscular dystrophy (FSHD) affected human embryonic stem cell (hESC)-derived skeletal myoblasts at 0.01 to 3 uM and measured by immunocytochemistry analysis relative to control", "type": "functional, cell-based", "conditions": "dose 0.01-3 µM"}, "Myoblast [7]": {"system": "Myoblast", "assay": "Rescue of cell death in facioscapulohumeral muscular dystrophy (FSHD) primary pateint derived myoblasts at 0.01 to 3 uM and measured by live cell imaging method", "type": "functional, cell-based", "conditions": "Homo sapiens, dose 0.01-3 µM"}, "Myoblast [8]": {"system": "Myoblast", "assay": "Effect on DUX4-target gene expression in facioscapulohumeral muscular dystrophy (FSHD) primary pateint derived myoblasts at 0.03 to 3 microM assessed as decrease in PRAMEF2 expression", "type": "functional, cell-based", "conditions": "Homo sapiens, dose 0.03-3 µM"}, "Myoblast [9]": {"system": "Myoblast", "assay": "Effect on myotube gene expression in facioscapulohumeral muscular dystrophy (FSHD) primary pateint derived myoblasts at 0.03 to 3 microM assessed as decrease in MYH3 expression", "type": "functional, cell-based", "conditions": "Homo sapiens, dose 0.03-3 µM"}, "Myoblast [10]": {"system": "Myoblast", "assay": "Effect on myotube gene expression in facioscapulohumeral muscular dystrophy (FSHD) primary pateint derived myoblasts at 0.03 to 3 microM assessed as decrease in DMD expression", "type": "functional, cell-based", "conditions": "Homo sapiens, dose 0.03-3 µM"}, "Myoblast [11]": {"system": "Myoblast", "assay": "Effect on myotube gene expression in facioscapulohumeral muscular dystrophy (FSHD) primary pateint derived myoblasts at 0.03 to 3 microM assessed as decrease in MYOG expression", "type": "functional, cell-based", "conditions": "Homo sapiens, dose 0.03-3 µM"}, "[12]": {"assay": "Downregulation of DUX4 expression in facioscapulohumeral muscular dystrophy (FSHD) affected human embryonic stem cell (hESC)-derived skeletal myoblasts and measured by immunocytochemistry analysis", "type": "functional, cell-based", "conditions": "Myoblast"}, "Myoblast [13]": {"system": "Myoblast", "assay": "Effect on myosin heavy chain expression in facioscapulohumeral muscular dystrophy (FSHD) affected human embryonic stem cell (hESC)-derived skeletal myoblasts at 100 nM and measured by immunocytochemistry analysis relative to control", "type": "functional, cell-based"}, "Myoblast [14]": {"system": "Myoblast", "assay": "Effect on DUX4-target gene expression in facioscapulohumeral muscular dystrophy (FSHD) primary pateint derived myoblasts at 0.03 to 3 microM assessed as decrease in TRIM43 expression", "type": "functional, cell-based", "conditions": "Homo sapiens, dose 0.03-3 µM"}, "Myoblast [15]": {"system": "Myoblast", "assay": "Downregulation of DUX4 expression in facioscapulohumeral muscular dystrophy (FSHD) affected human embryonic stem cell (hESC)-derived skeletal myoblasts at 0.01 to 3 uM and measured by immunocytochemistry analysis relative to control", "type": "functional, cell-based", "conditions": "dose 0.01-3 µM"}, "Myoblast [16]": {"system": "Myoblast", "assay": "Effect on DUX4-target gene expression in facioscapulohumeral muscular dystrophy (FSHD) primary pateint derived myoblasts at 0.03 to 3 microM assessed as decrease in MBD3L2 expression", "type": "functional, cell-based", "conditions": "Homo sapiens, dose 0.03-3 µM"}, "[17]": {"assay": "Downregulation of DUX4 expression in facioscapulohumeral muscular dystrophy (FSHD) primary pateint derived myoblasts and measured by immunocytochemistry analysis", "type": "functional, cell-based", "conditions": "Homo sapiens, Myoblast"}, "Myoblast [18]": {"system": "Myoblast", "assay": "Effect on myotube gene expression in facioscapulohumeral muscular dystrophy (FSHD) primary pateint derived myoblasts at 0.03 to 3 microM assessed as decrease in MYH8 expression", "type": "functional, cell-based", "conditions": "Homo sapiens, dose 0.03-3 µM"}, "Myoblast [19]": {"system": "Myoblast", "assay": "Effect on DNA methylation levels at 4qA regions of chromosome 4 in myotubes of facioscapulohumeral muscular dystrophy (FSHD) affected human embryonic stem cell (hESC)-derived skeletal myoblasts at 0.01 to 1 uM", "type": "functional, cell-based", "conditions": "dose 0.01-1 µM"}, "Myoblast [20]": {"system": "Myoblast", "assay": "Effect on DUX4-target gene expression in facioscapulohumeral muscular dystrophy (FSHD) primary pateint derived myoblasts at 0.03 to 3 microM assessed as decrease in CCNA1 expression", "type": "functional, cell-based", "conditions": "Homo sapiens, dose 0.03-3 µM"}, "Myoblast [21]": {"system": "Myoblast", "assay": "Effect on DUX4-target gene expression in facioscapulohumeral muscular dystrophy (FSHD) primary pateint derived myoblasts at 0.03 to 3 microM assessed as decrease in KHDC1L expression", "type": "functional, cell-based", "conditions": "Homo sapiens, dose 0.03-3 µM"}, "Myoblast [22]": {"system": "Myoblast", "assay": "Downregulation of DUX4 expression in facioscapulohumeral muscular dystrophy (FSHD) affected human embryonic stem cell (hESC)-derived skeletal myoblasts at 100 nM and measured by immunocytochemistry analysis relative to control", "type": "functional, cell-based"}, "Myoblast [23]": {"system": "Myoblast", "assay": "Effect on myotube gene expression in facioscapulohumeral muscular dystrophy (FSHD) primary pateint derived myoblasts at 0.03 to 3 microM assessed as decrease in CKM expression", "type": "functional, cell-based", "conditions": "Homo sapiens, dose 0.03-3 µM"}, "Myoblast [24]": {"system": "Myoblast", "assay": "Effect on nuclei count in facioscapulohumeral muscular dystrophy (FSHD) affected human embryonic stem cell (hESC)-derived skeletal myoblasts at 100 nM and measured by immunocytochemistry analysis relative to control", "type": "functional, cell-based"}, "[25]": {"biological_target": "DNA-dependent protein kinase catalytic subunit (Homo sapiens) (UniProt P78527)", "sequence (P78527 whole entry)": "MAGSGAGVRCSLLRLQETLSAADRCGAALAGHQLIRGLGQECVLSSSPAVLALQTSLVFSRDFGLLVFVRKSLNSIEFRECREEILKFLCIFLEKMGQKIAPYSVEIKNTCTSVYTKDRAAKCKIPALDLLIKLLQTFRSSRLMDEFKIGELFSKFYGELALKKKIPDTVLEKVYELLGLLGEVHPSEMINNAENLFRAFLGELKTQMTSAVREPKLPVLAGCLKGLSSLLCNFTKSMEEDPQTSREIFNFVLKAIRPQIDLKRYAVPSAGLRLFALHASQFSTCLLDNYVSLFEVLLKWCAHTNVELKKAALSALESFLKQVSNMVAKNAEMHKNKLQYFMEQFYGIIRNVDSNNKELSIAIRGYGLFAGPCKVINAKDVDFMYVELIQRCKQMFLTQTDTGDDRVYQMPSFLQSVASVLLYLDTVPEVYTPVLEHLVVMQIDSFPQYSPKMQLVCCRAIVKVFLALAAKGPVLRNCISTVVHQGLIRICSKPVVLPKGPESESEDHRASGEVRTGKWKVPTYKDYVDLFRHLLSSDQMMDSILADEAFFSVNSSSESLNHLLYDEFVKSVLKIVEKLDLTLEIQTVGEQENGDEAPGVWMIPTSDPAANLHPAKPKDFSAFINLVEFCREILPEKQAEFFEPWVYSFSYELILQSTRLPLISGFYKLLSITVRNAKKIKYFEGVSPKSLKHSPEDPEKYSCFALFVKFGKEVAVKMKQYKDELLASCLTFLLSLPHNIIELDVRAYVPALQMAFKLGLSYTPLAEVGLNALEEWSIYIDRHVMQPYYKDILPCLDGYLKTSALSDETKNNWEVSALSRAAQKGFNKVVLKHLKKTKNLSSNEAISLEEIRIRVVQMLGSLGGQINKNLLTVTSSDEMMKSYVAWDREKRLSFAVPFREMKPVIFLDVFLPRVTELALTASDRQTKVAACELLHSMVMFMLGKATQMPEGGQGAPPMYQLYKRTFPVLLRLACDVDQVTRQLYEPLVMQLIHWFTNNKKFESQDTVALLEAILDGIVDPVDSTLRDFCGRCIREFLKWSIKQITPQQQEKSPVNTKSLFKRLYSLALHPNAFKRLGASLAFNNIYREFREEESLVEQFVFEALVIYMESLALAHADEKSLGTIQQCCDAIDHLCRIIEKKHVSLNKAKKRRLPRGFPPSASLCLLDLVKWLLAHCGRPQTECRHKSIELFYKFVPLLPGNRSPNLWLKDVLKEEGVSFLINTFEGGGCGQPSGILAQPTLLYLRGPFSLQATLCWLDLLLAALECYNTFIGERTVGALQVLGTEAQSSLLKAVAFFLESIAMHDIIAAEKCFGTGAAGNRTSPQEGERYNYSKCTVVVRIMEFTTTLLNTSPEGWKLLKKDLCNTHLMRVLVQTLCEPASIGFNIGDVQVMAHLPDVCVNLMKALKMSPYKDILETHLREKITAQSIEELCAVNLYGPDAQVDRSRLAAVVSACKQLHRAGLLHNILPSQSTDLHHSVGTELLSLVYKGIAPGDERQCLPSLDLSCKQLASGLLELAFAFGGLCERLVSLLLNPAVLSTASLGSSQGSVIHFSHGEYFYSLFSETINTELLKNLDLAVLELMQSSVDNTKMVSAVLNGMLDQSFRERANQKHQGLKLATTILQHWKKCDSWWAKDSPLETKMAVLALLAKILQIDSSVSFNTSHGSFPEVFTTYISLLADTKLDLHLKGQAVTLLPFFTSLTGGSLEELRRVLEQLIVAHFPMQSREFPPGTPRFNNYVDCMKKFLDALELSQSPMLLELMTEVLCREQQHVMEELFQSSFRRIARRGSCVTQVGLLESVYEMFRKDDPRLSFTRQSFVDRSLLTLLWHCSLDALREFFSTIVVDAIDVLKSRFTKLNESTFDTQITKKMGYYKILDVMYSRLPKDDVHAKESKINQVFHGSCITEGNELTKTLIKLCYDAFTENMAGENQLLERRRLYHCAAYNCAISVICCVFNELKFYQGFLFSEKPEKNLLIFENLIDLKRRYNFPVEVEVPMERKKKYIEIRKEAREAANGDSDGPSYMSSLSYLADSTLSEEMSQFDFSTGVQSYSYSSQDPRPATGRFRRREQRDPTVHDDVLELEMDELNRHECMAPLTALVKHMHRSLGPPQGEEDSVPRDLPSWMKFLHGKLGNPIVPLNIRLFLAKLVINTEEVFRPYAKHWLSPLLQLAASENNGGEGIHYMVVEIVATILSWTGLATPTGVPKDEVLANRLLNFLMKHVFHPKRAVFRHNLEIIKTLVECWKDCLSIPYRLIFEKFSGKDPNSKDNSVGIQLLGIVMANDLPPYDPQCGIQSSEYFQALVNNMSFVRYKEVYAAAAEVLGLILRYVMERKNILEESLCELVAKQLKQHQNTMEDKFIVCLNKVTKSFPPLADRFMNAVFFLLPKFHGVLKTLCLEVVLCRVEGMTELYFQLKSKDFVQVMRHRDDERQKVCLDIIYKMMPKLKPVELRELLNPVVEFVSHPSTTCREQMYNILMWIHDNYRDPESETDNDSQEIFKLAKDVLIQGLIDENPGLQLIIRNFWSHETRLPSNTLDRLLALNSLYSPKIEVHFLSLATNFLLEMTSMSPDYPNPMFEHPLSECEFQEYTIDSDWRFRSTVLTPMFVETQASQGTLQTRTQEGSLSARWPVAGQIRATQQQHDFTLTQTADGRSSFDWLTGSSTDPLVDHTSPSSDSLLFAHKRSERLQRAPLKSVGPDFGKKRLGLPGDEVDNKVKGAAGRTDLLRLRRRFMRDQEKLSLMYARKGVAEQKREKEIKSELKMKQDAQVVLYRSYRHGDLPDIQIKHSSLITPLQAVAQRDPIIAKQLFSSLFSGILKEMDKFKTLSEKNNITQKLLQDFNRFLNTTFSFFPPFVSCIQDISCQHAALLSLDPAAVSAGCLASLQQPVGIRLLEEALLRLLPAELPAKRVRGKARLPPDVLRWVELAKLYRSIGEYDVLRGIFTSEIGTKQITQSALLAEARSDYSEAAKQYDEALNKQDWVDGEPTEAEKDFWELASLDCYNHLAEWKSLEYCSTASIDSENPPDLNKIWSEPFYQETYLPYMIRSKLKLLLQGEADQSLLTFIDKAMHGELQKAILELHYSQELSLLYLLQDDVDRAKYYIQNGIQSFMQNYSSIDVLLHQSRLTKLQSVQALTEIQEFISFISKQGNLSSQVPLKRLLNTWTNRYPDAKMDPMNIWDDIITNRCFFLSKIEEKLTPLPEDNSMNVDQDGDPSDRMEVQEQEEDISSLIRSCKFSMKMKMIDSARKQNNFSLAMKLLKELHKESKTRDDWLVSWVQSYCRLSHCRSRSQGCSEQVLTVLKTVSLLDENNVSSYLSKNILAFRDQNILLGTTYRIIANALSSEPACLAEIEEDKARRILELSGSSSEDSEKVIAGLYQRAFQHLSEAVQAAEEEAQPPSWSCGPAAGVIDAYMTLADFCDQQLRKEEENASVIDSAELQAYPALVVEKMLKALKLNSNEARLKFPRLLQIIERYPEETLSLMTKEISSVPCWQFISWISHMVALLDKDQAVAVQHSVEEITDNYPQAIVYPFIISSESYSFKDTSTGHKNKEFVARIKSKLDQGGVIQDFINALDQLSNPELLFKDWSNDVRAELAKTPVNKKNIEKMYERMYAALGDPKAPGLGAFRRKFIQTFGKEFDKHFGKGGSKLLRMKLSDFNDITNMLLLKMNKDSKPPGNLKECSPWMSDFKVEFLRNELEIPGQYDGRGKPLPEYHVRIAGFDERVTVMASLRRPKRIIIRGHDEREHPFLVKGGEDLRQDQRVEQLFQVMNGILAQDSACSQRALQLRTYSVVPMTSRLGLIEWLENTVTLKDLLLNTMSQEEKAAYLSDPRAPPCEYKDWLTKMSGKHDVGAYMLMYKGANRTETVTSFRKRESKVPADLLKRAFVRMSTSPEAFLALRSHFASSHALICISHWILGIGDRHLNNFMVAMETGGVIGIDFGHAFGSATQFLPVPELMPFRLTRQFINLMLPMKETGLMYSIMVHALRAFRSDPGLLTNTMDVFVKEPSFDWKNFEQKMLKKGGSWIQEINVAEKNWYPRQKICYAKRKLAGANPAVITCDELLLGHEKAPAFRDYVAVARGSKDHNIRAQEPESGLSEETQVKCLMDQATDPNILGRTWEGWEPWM", "assay": "Inhibition of PRKDC in facioscapulohumeral muscular dystrophy (FSHD) primary pateint derived myoblasts at 0.01 to 1 uM and measured by immunofluorescence method", "type": "cell-based", "conditions": "Myoblast, dose 0.01-1 µM"}, "[26]": {"biological_target": "Proto-oncogene tyrosine-protein kinase Src (Homo sapiens) (UniProt P12931)", "sequence (P12931 2-536 limits assumed)": "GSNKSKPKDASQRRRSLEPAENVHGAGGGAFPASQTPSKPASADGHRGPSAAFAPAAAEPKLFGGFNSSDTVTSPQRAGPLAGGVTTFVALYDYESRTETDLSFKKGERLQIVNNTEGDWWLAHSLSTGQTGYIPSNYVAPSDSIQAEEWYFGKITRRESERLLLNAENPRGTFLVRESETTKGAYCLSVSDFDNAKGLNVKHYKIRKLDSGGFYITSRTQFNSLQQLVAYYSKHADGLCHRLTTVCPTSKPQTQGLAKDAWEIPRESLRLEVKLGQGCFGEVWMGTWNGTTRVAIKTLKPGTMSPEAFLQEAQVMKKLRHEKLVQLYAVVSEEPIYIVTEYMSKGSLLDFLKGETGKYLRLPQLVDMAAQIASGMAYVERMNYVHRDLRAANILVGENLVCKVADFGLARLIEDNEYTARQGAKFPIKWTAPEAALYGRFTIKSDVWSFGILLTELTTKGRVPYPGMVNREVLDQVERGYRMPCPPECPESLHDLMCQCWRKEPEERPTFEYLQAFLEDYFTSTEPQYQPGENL", "assay": "Inhibition of SRC in facioscapulohumeral muscular dystrophy (FSHD) primary pateint derived myoblasts at 0.01 to 1 uM and measured by immunofluorescence method", "type": "cell-based", "conditions": "Myoblast, dose 0.01-1 µM"}, "Myoblast [27]": {"system": "Myoblast", "assay": "Effect on DUX4-target gene expression in facioscapulohumeral muscular dystrophy (FSHD) primary pateint derived myoblasts at 0.03 to 3 microM assessed as decrease in ZSCAN4 expression", "type": "functional, cell-based", "conditions": "Homo sapiens, dose 0.03-3 µM"}, "Myoblast [28]": {"system": "Myoblast", "assay": "Effect on myotube gene expression in facioscapulohumeral muscular dystrophy (FSHD) primary pateint derived myoblasts at 0.03 to 3 microM assessed as decrease in DES expression", "type": "functional, cell-based", "conditions": "Homo sapiens, dose 0.03-3 µM"}, "Myoblast [29]": {"system": "Myoblast", "assay": "Effect on DNA methylation levels at D4Z4 regions of chromosome 4 in myotubes of facioscapulohumeral muscular dystrophy (FSHD) affected human embryonic stem cell (hESC)-derived skeletal myoblasts at 0.01 to 1 uM", "type": "functional, cell-based", "conditions": "dose 0.01-1 µM"}, "Myoblast [30]": {"system": "Myoblast", "assay": "Rescue of apoptosis in facioscapulohumeral muscular dystrophy (FSHD) primary pateint derived myoblasts at 0.01 to 3 uM assessed as decrease in caspase 3/7 activation and measured by live cell imaging method", "type": "functional, cell-based", "conditions": "Homo sapiens, dose 0.01-3 µM"}, "Myoblast [31]": {"system": "Myoblast", "assay": "Effect on DUX4-target gene expression in facioscapulohumeral muscular dystrophy (FSHD) primary pateint derived myoblasts at 0.03 to 3 microM assessed as decrease in LEUTX expression", "type": "functional, cell-based", "conditions": "Homo sapiens, dose 0.03-3 µM"}, "Myoblast [32]": {"system": "Myoblast", "assay": "Effect on SRC expression in facioscapulohumeral muscular dystrophy (FSHD) primary pateint derived myoblasts at 0.01 to 1 uM and measured by RT-PCR analysis", "type": "functional, cell-based", "conditions": "Homo sapiens, dose 0.01-1 µM"}, "[33]": {"assay": "Half-life in male CD-1 mouse at 50 mg/kg, IM measured by LC-MS/MS analysis", "type": "ADME, organism-based", "conditions": "in vivo"}, "Myoblast [34]": {"system": "Myoblast", "assay": "Effect on PRKDC expression in facioscapulohumeral muscular dystrophy (FSHD) primary pateint derived myoblasts at 0.01 to 1 uM and measured by RT-PCR analysis", "type": "functional, cell-based", "conditions": "Homo sapiens, dose 0.01-1 µM"}, "Myoblast [35]": {"system": "Myoblast", "assay": "Effect on DUX4-target gene expression in facioscapulohumeral muscular dystrophy (FSHD) primary pateint derived myoblasts at 0.03 to 3 microM assessed as decrease in ZNF296 expression", "type": "functional, cell-based", "conditions": "Homo sapiens, dose 0.03-3 µM"}}, "note": "Active and inactive are the calls of the source. The rule behind the calls is not given here."}
{"smiles": "CNC(=O)c1cc(Oc2ccc(NC(=O)Nc3cc(C(C)(C)C)nn3-c3ccc4ncccc4c3)c(F)c2)ccn1", "note": "[REBASTINIB]", "values": [{"measurement": "Drug uptake", "setting": "[1]", "result": "Bld"}, {"measurement": "Activity", "setting": "Myoblast [2]", "result": "Active"}, {"measurement": "Activity", "setting": "Myoblast [3]", "result": "Active"}, {"measurement": "Activity", "setting": "Myoblast [4]", "result": "Active"}, {"measurement": "half-life", "setting": "[5]", "result": 5.59, "unit": "h"}, {"measurement": "Activity", "setting": "Myoblast [6]", "result": "inactive"}, {"measurement": "Activity", "setting": "Myoblast [7]", "result": "Active"}, {"measurement": "Activity", "setting": "Myoblast [8]", "result": "Active"}, {"measurement": "Activity", "setting": "Myoblast [9]", "result": "inactive"}, {"measurement": "Activity", "setting": "Myoblast [10]", "result": "inactive"}, {"measurement": "Activity", "setting": "Myoblast [11]", "result": "inactive"}, {"measurement": "EC50", "setting": "[12]", "result": 37.9, "unit": "µM"}, {"measurement": "Activity", "setting": "Myoblast [13]", "result": "inactive"}, {"measurement": "Activity", "setting": "Myoblast [14]", "result": "Active"}, {"measurement": "Activity", "setting": "Myoblast [15]", "result": "Active"}, {"measurement": "Activity", "setting": "Myoblast [16]", "result": "Active"}, {"measurement": "IC50", "setting": "[17]", "result": 0.1, "unit": "µM"}, {"measurement": "Activity", "setting": "Myoblast [18]", "result": "inactive"}, {"measurement": "Activity", "setting": "Myoblast [19]", "result": "inactive"}, {"measurement": "Activity", "setting": "Myoblast [20]", "result": "Active"}, {"measurement": "Activity", "setting": "Myoblast [21]", "result": "Active"}, {"measurement": "Activity", "setting": "Myoblast [22]", "result": "Active"}, {"measurement": "Activity", "setting": "Myoblast [23]", "result": "inactive"}, {"measurement": "Activity", "setting": "Myoblast [24]", "result": "inactive"}, {"measurement": "inhibition", "setting": "[25]", "result": "Active"}, {"measurement": "inhibition", "setting": "[26]", "result": "Active"}, {"measurement": "Activity", "setting": "Myoblast [27]", "result": "Active"}, {"measurement": "Activity", "setting": "Myoblast [28]", "result": "inactive"}, {"measurement": "Activity", "setting": "Myoblast [29]", "result": "inactive"}, {"measurement": "Activity", "setting": "Myoblast [30]", "result": "Active"}, {"measurement": "Activity", "setting": "Myoblast [31]", "result": "Active"}, {"measurement": "Activity", "setting": "Myoblast [32]", "result": "inactive"}, {"measurement": "half-life", "setting": "[33]", "result": 8.1, "unit": "h"}, {"measurement": "Activity", "setting": "Myoblast [34]", "result": "inactive"}, {"measurement": "Activity", "setting": "Myoblast [35]", "result": "Active"}]}
